Here are results for two molecules from US11945779B2, “Inhibitors of cancer metastasis through inhibiting migration and invasion of cancer cells” (VSpharmtech, priority 2018, dated 2024).

Common to all, as to assay type: cell-based
Test [1] relates to pancreatic cancer cells CFPAC-1. The test is described as follows: Trans-well cancer cell migration inhibition, CFPAC-1. The settings on record: CFPAC-1, concentration not given, FIG. 3. How it is done: (§1) In order to analyze cancer cell migration inhibitory activity of CG-608, CG-609 or CG-618 prepared in Examples 1, 2, or 9, cell migration inhibitory activity was measured using a trans-well by targeting a colon cancer cell line DLD-1 (ATCC-CCL-221), pancreatic cancer cell lines AsPc-1 (ATCC-CCL-1682). CFPAC-1 (ATCC-CCL-1918). Panc-1 (ATCC-CCL-1469), and Miapaca-2 (ATCC-CCL-1420), a skin cancer cell line A375-P (ATCC-CCL-3224), lung cancer cell lines HCC-827 (ATCC-CCL-2868), A549 (ATCC-CCL-185), and NCI-H460 (ATCC-CCL-177), a prostate cancer cell line DU145 (ATCC-HTB-81), a stomach cancer cell line NuGC-3 (JCRB0822), and an ovarian cancer cell line SKOV-3 (ATCC-HTB-77).
(§2) First, the number of DLD-1 cells was measured using a hemocytometer in an RPMI medium without FBS. […] After culture, […] of crystal violet (5 mg/mL of 20% […] was added to each well of the 24-well plate and the trans-well was dyed at room temperature for 30 minutes. The dyed trans-well was washed with PBS and non-migrated cells were wiped off with cotton swabs. The prepared sample was photographed with an inverted microscope mounted with a digital camera (TE 300, Nikon. Japan) and then the number of migrated cells was counted. The degree of inhibiting cell migration was calculated by Equation 1 for a group treated with the sample compared to a control group (DMSO). […]

The subject of another test is lung cancer cells A549. Description: Trans-well cancer cell migration inhibition, A549. The settings on record: A549, concentration not given, FIG. 3. As to the method: as §1, §2
Test [2] deals with human colon cancer cell line DLD-1. Description: Lamellipodia formation inhibition (confocal microscope), DLD-1. The settings on record: DLD-1, 6 hours, FIG. 9. As to the method: (§3) A human colon cancer cell line DLD-1, a human pancreatic cancer cell line AsPc-1, a human melanoma cell line A375P, and normal cells MCF10A were each cultured to 1×10^5 cell density on a 35 mm high-m dish plate (ibid GmbH). The cells attached to the plate were washed with phosphate buffered saline (PBS) and then treated with DMSO or CG-618 dissolved in DMSO for 6 hours. After removing the cell culture medium from the plate, the plate was washed two times with PBS and treated with 4% paraformaldehyde dissolved in PBS at room temperature for 10 minutes to immobilize the cells. The plate was washed with PBS once and then treated with 0.2% Triton X-100 at room temperature for 10 minutes to enhance cell permeability. The plate was washed with PBS and treated with 1% BSA dissolved in PBS at room temperature for 1 hour to block non-specific bonds. In order to check the distribution in cells of filament actin (F-actin), phalloidin bound with Alexa Fluor 488, which was specifically bound with F-actin, was treated at room temperature for 15 minutes. The plate was washed with PBS three times and then treated with 2 mg/mL 4′,6′-diamidino-2-phenylindole (DAPAI) dissolved in PBS for two minutes at room temperature to dye the nucleus. The plate was washed with PBS three times and filled with 1 mL PBS. […] The obtained images were analyzed by an analysis program (LSM Version 3.2 software).

The subject of test [3] is human pancreatic cancer cell line AsPc-1. The test is described as follows: Lamellipodia formation inhibition (confocal microscope), AsPc-1. The settings on record: AsPc-1, 6 hours, FIG. 9. As to the method:
as §3

SMILES strings stand for the structures.

As to `C[C@H](COc1ccccc1Cc1ccccc1)N1CCCC[C@@H]1C` [CG-609, (S)-1-((R)-1-(2-benzylphenoxy)propan-2-yl)-2-methylpiperidine], the “Inhibition of cell migration” value (in test [1]; in the test on lung cancer cells A549) was not below 50% each time.
As to `CC1CCCCN1C(C)COc1ccccc1Cc1ccccc1` (racemic) [CG-618, 1-(1-(2-benzylphenoxy)propan-2-yl)-2-methylpiperidine], the Formation of lamellipodia result in test [2] and in test [3] was “inhibits formation of lamellipodia” in each case.
